# Tests used:
# Assay type in all cases: in vivo, C57BL/6 male mice
# IGFIR = experiment: Western blotting of liver protein extract: IGFIR; conditions: high-fat diet mice, groups 3~5 (5, 15, 25 mg/kg/day i.p.), normalized with tubulin, compared with group 2
# Protocol: (§1) The experiments using the experimental mice were conducted according to the IACUC-100-12 protocol approved by Academia Sinica Institutional Animal Care and Utilization Committee (IACUC) ethics committee. All C57BL/6 male mice (6-weeks-old) were randomly divided into 5 groups that contain 8 mice in each. These mice were individually housed in a room temperature at 24±2° C. and 55±10% humidity with 12 hours of light cycle. Herein, the control mice in the group 1 were fed with standard laboratory diet and administrated 0.9% normal saline by intra-peritoneal injection. […]
# (§2) Protein concentration of extract was determined by Lowry's protein assay method, first. […]
# (§3) The protein extract of the mouse liver of the each group was prepared in example 4 and then to determine the expressions of apoptosis and survive related proteins using western blotting of example 5. The expression pattern of the apoptosis and survive related proteins were shown in FIG. 7 to FIG. 12, wherein the expression of tubulin was utilized as the internal control in western blot analysis in FIG. 7, FIG. 9 and FIG. 11, and the relative expression levels of the apoptosis and survive related proteins in mouse liver were normalized with tubulin for quantification in FIG. 8, FIG. 10 and FIG. 12. […]
# AKT = experiment: Western blotting of liver protein extract: AKT; conditions: high-fat diet mice, groups 3~5 (5, 15, 25 mg/kg/day i.p.), normalized with tubulin, compared with group 2
# Protocol: as §1, §2, §3
# mouse liver = experiment: Histopathological examination (H&E) of mouse liver, high-fat diet fed mice; conditions: high-fat diet mice, 5, 15 or 25 mg/kg/day intra-peritoneal (groups 3~5)
# Protocol: (§4) The experiments using the experimental mice were conducted according to the IACUC-100-12 protocol approved by Academia Sinica Institutional Animal Care and Utilization Committee (IACUC) ethics committee. All C57BL/6 male mice (6-weeks-old) were randomly divided into 5 groups that contain 8 mice in each. These mice were individually housed in a room temperature at 24±2° C. and 55±10% humidity with 12 hours of light cycle. Herein, the control mice in the group 1 were fed with standard laboratory diet and administrated 0.9% normal saline by intra-peritoneal injection. In the group 2, the mice were fed with high-fat diet to induce the fatty liver, and administrated 0.9% normal saline by intra-peritoneal injection. In the group 3, the mice were fed with high-fat diet and administrated with peptide of SEQ ID No.1 by intra-peritoneal injected with the dose of 5 mg/kg/day. In the group 4, the mice were fed with high-fat diet and administrated with peptide of SEQ ID No.1 by intra-peritoneal injected with the dose of 15 mg/kg/day. In the group 5, the mice were fed with high-fat diet and administrated with peptide of SEQ ID No.1 by intra-peritoneal injected with the dose of 25 mg/kg/day. The inter-peritoneal injections were performed on these mice between third to sixth weeks of culture.
# The livers were excised from the mice of the each group; soaked in formalin; dehydrated by passing consecutively through […] and then embedded in paraffin wax. The each embedded liver tissue block was cut into […] sections and deparaffinization by soaking in xylene. The histological section of the mouse liver in the each group was consecutively stained by hematoxylin and eosin (H&E) and rinsed with water. The photomicrographs of the histological section of the mouse liver in the each group obtained using Zeiss Axiophot microscope (Thornwood Co, USA.) were shown in FIG. 3 and FIG. 4.
# Caspase-3 = experiment: Western blotting of liver protein extract: Caspase-3; conditions: high-fat diet mice, groups 3~5 (5, 15, 25 mg/kg/day i.p.), normalized with tubulin, compared with group 2
# Protocol: as §1, §2, §3
# PPARα = experiment: Western blotting of liver protein extract: PPARα; conditions: high-fat diet mice, groups 3~5 (5, 15, 25 mg/kg/day i.p.), normalized with tubulin, compared with group 2
# Protocol: as §1, with “injection. In the group 2, the mice were fed with high-fat diet to induce the fatty liver, and administrated 0.9% normal saline by intra-peritoneal injection.” for “injection.”
# as §2
# According to method in example 5, protein extract of mouse liver in each group prepared in example 4 was subjected to determine the expression pattern and relative level of PPARα. The results were shown in FIG. 15 and FIG. 16, wherein the expression of tubulin was utilized as the internal control in FIG. 15 and the quantified expression level of PPARα in the mouse livers of the each group was calculated with normalized with quantified expression level of tubulin in FIG. 16.
# [1] = tested on: matrix metalloproteinase-9; experiment: Western blotting of liver protein extract: MMP-9 (hepatic fibrosis biomarker); conditions: high-fat diet mice, groups 3~5 (5, 15, 25 mg/kg/day i.p.), normalized with tubulin, compared with group 2
# Protocol: as §1, with “injection. In the group 2, the mice were fed with high-fat diet to induce the fatty liver, and administrated 0.9% normal saline by intra-peritoneal injection.” for “injection.”
# as §2
# According to method in example 5, protein extract of mouse liver in the each group prepared in example 4 was subjected to determine the expression pattern and relative level of matrix metalloproteinase-9 (hereafter referred to as MMP 9). The results were shown in FIG. 13 and FIG. 14, wherein in FIG. 13, the expression of tubulin was utilized as the internal control in the western blotting and in FIG. 14, the quantified expression level of MMP-9 in the mouse liver of the each group was calculated with normalized with quantified expression level of tubulin.
# [2] = LDL-cholesterol and triglyceride in blood plasma of high-fat diet fed mice; conditions: high-fat diet mice, 5, 15 or 25 mg/kg/day intra-peritoneal (groups 3~5), compared with group 2 (high-fat diet, saline)
# Protocol: as §4, with “In the group 5, the mice were fed with high-fat diet and administrated with peptide of SEQ ID No.1 by intra-peritoneal injected with the dose of 25 mg/kg/day. The inter-peritoneal injections were performed on these mice between third to sixth weeks of culture.” left out
# The blood samples collected from the mice in each group indicated in example 1 into the microcentrifuge tubes containing heparin (10 μL, 1000 IU/ml). […] The concentration of low density lipoprotein-cholesterol (hereafter referred to as LDL) and triglyceride in the isolated blood plasma from the mice in the each group were determined by using the commercial detection kit.
# IL-6 = experiment: Western blotting of liver protein extract: IL-6; conditions: high-fat diet mice, groups 3~5 (5, 15, 25 mg/kg/day i.p.), normalized with tubulin, compared to group 2
# Protocol: as §1, with “injection. In the group 2, the mice were fed with high-fat diet to induce the fatty liver, and administrated 0.9% normal saline by intra-peritoneal injection.” for “injection.”
# as §2
# (§5) According to the methods in example 4 and 5, preparing the protein extract of mouse liver in the each group and then the expression pattern of TNFα and IL-6 in mouse liver of the each group was determined by western blotting. The results were shown in FIG. 5 and FIG. 6, wherein the expression of tubulin was utilized as internal control in FIG. 5 and FIG. 6 and the relative amount of TNFα and IL-6 in mouse liver of the each group were separately quantified and normalization with the internal control.
# Caspase-9 = experiment: Western blotting of liver protein extract: Caspase-9; conditions: high-fat diet mice, groups 3~5 (5, 15, 25 mg/kg/day i.p.), normalized with tubulin, compared with group 2
# Protocol: as §1, §2, §3
# cytochrome c = experiment: Western blotting of liver protein extract: cytochrome c; conditions: high-fat diet mice, groups 3~5 (5, 15, 25 mg/kg/day i.p.), normalized with tubulin, compared with group 2
# Protocol: as §1, §2, §3
# Bcl-2 = experiment: Western blotting of liver protein extract: Bcl-2; conditions: high-fat diet mice, groups 3~5 (5, 15, 25 mg/kg/day i.p.), normalized with tubulin, compared with group 2
# Protocol: as §1, §2, §3
# Caspase-8 = experiment: Western blotting of liver protein extract: Caspase-8; conditions: high-fat diet mice, groups 3~5 (5, 15, 25 mg/kg/day i.p.), normalized with tubulin, compared with group 2
# Protocol: as §1, §2, §3
# Bax = experiment: Western blotting of liver protein extract: Bax; conditions: high-fat diet mice, groups 3~5 (5, 15, 25 mg/kg/day i.p.), normalized with tubulin, compared with group 2
# Protocol: as §1, §2, §3
# TNFα = experiment: Western blotting of liver protein extract: TNFα; conditions: high-fat diet mice, groups 3~5 (5, 15, 25 mg/kg/day i.p.), normalized with tubulin, compared to group 2
# Protocol: as §1, with “injection. In the group 2, the mice were fed with high-fat diet to induce the fatty liver, and administrated 0.9% normal saline by intra-peritoneal injection.” for “injection.”
# as §2, §5
# PI3K = experiment: Western blotting of liver protein extract: PI3K; conditions: high-fat diet mice, groups 3~5 (5, 15, 25 mg/kg/day i.p.), normalized with tubulin, compared with group 2
# Protocol: as §1, §2, §3
substance,measurement,setting,value
"peptide of SEQ ID No.1: isolated peptide containing an amino acid sequence of SEQ ID No.1; obtainable by extraction, hydrolyzation or chemical synthesis (VHVV)",expression level of survival related protein IGFIR (pIGF-IR) in mouse liver,IGFIR,obviously higher
same,expression level of survival related protein AKT (pAKT) in mouse liver,AKT,obviously higher
same,fat accumulation in the mouse liver (H&E),mouse liver; compared with group 2,obviously decreased
same,giant oil drops in the mouse liver (H&E),mouse liver; group 2 filled with giant oil drops,never was observed the giant oil drop
same,arrangement of hepatocytes in the mouse liver (H&E),mouse liver; group 2 loosely arranged,tightly arranged hepatocytes
same,expression level of Caspase-3 (pro-apoptotic factor) in mouse liver,Caspase-3,obviously suppressed
same,expression level of PPARα in mouse liver,PPARα,obviously increased
same,expression level of MMP-9 in mouse liver,[1],obviously suppressed
same,concentration of LDL in blood plasma,[2],obviously decreased
same,concentration of triglyceride in blood plasma,[2],obviously decreased
same,expression level of IL-6 in mouse liver,IL-6,obviously reduced
same,expression level of Caspase-9 (pro-apoptotic factor) in mouse liver,Caspase-9,obviously suppressed
same,expression level of cytochrome c (pro-apoptotic factor) in mouse liver,cytochrome c,obviously suppressed
same,expression level of Bcl-2 in mouse liver,Bcl-2,elevated
same,expression level of Caspase-8 (pro-apoptotic factor) in mouse liver,Caspase-8,obviously suppressed
same,expression level of Bax (pro-apoptotic factor) in mouse liver,Bax,obviously suppressed
same,expression level of TNFα in mouse liver,TNFα,obviously reduced
same,expression level of survival related protein PI3K in mouse liver,PI3K,obviously higher

# From US20150337010A1, “Method for treating or preventing liver related diseases” (Tunghai University, priority 2014, published 2015)
